One assay has as its target T1, human GCGR (Homo sapiens, UniProt P47871).
T1 construct: expressed in transfected cells
Nature of the assay: cAMP activity assay (HitHunter cAMP XS), cells expressing human GCGR. Format: cell-based. The note with it: for EC50: Table 2, cAMP production, read-out: EC50 hGCGR. Here is the method: (§1) Peptides were dissolved in 100% DMSO and serially diluted to generate 10 point titrations. The peptide solutions were then transferred into 384-well assay plates (150 nL/well). Assay ready frozen cells expressing human GLP1R or human GCGR were suspended in growth media consisting of DMEM medium (GIBCO), 10% FBS (GIBCO), 1×NEAA(GIBCO), 1× P/S (GIBCO), 10 ug/ml Blasticidin (GIBCO) and 200 μg/mL Hygromycin (GIBCO). […] The cell suspensions (15 μL) were then added to the assay plates containing the peptide solutions (30,000 cells/well for human GCGR; 10,000 cells/well for human GLP1R). The cells were incubated for 1 hour at room temperature in the dark. Production of cAMP was determined using HitHunter™ cAMPXS kits (DiscoverX) following manufacturer protocol. The plates were incubated for overnight at room temperature in the dark. Luminescence was measured using an EnVision Multilabel plate reader (Perkin Elmer). […] EC50 values were calculated using uses a 4 parameter logistic fit based on the Levenberg-Marquardt algorithm.
For orientation: Cyclic AMP is a second messenger, typically raised through Gs and lowered through Gi signalling.

The next assay concerns the target T2, human GLP1R (Homo sapiens, UniProt P43220).
T2 construct: expressed in transfected cells
Nature of the assay: cAMP activity assay (HitHunter cAMP XS), cells expressing human GLP1R. Format: cell-based. The following applies: Table 2; cAMP production; read-out: EC50 hGLP1R. Here is the method: as §1

T1 sequence (P47871 26-477): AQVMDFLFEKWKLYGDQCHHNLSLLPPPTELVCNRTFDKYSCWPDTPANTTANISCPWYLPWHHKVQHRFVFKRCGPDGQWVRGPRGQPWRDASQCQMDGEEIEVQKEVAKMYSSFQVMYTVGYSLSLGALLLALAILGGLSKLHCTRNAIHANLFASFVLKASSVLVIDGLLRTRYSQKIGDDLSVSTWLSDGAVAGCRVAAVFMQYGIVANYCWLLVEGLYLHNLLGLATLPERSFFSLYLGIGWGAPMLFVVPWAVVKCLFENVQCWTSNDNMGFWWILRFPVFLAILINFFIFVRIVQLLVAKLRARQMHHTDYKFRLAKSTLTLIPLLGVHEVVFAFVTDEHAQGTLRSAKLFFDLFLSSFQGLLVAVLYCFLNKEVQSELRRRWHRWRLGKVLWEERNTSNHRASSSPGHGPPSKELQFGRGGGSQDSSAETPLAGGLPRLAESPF
T2 sequence (P43220 24-463): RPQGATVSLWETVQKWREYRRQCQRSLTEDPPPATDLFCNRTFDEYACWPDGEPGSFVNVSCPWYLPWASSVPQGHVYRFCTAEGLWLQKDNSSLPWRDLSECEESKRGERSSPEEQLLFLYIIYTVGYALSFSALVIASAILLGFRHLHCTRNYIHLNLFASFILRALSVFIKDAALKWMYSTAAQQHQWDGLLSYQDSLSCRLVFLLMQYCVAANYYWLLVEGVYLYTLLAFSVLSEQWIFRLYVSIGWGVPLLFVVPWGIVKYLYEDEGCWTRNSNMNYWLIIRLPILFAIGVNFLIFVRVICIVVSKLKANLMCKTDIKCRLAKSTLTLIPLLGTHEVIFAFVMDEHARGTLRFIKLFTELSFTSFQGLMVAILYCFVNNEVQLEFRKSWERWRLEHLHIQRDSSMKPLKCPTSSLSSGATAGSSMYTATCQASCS

For the compound `CC(C)C[C@H](NC(=O)[C@H](Cc1ccc(O)cc1)NC(=O)[C@H](CCCCN)NC(=O)[C@H](CO)NC(=O)[C@H](Cc1ccc(O)cc1)NC(=O)[C@H](CC(=O)O)NC(=O)[C@H](CO)NC(=O)[C@@H](NC(=O)[C@H](Cc1ccccc1)NC(=O)[C@@H](NC(=O)CNC(=O)[C@H](CCC(N)=O)NC(=O)[C@H](CO)NC(=O)[C@@H](N)Cc1c[nH]cn1)[C@@H](C)O)[C@@H](C)O)C(=O)N[C@@H](CC(=O)O)C(=O)N[C@@H](Cc1c[nH]c2ccccc12)C(=O)N[C@@H](CCCNC(=N)N)C(=O)N[C@@H](CCCNC(=N)N)C(=O)N[C@@H](C)C(=O)N[C@@H](CCC(N)=O)C(=O)N[C@@H](CC(=O)O)C(=O)N[C@@H](Cc1ccccc1)C(=O)N[C@H](C(=O)N[C@@H](CCC(N)=O)C(=O)N[C@@H](Cc1c[nH]c2ccccc12)C(=O)N[C@@H](CC(C)C)C(=O)N[C@@H](CC(C)C)C(=O)N[C@@H](CC(N)=O)C(=O)N[C@H](C(N)=O)[C@@H](C)O)C(C)C` [PD23], the EC50 (commonly the concentration needed to bring the measured effect to its halfway point) at human GCGR worked out at 30 pM; at human GLP1R, 50 pM.

Turning to `CC[C@H](C)[C@H](NC(=O)[C@H](CC(C)C)NC(=O)[C@H](Cc1c[nH]c2ccccc12)NC(=O)[C@H](CCC(N)=O)NC(=O)[C@@H](NC(=O)[C@H](Cc1ccccc1)NC(=O)[C@H](CC(=O)O)NC(=O)[C@H](CCC(N)=O)NC(=O)[C@H](C)NC(=O)[C@H](CCCNC(=N)N)NC(=O)[C@H](CCCNC(=N)N)NC(=O)[C@H](C)NC(=O)[C@H](CC(=O)O)NC(=O)[C@H](CC(C)C)NC(=O)[C@H](Cc1ccc(O)cc1)NC(=O)[C@H](CCCCN)NC(=O)[C@H](CO)NC(=O)[C@H](Cc1ccc(O)cc1)NC(=O)[C@H](CC(=O)O)NC(=O)[C@H](CO)NC(=O)[C@@H](NC(=O)[C@H](Cc1ccccc1)NC(=O)[C@@H](NC(=O)CNC(=O)[C@H](CCC(N)=O)NC(=O)[C@H](CO)NC(=O)[C@@H](N)Cc1c[nH]cn1)[C@@H](C)O)[C@@H](C)O)C(C)C)C(=O)N[C@@H](CCCNC(=N)N)C(=O)N[C@H](C(N)=O)[C@@H](C)O` [PD25], the EC50 at human GCGR is 40 pM; on human GLP1R, 20 pM.

Regarding `CC[C@H](C)[C@H](NC(=O)[C@H](CC(C)C)NC(=O)[C@H](Cc1c[nH]c2ccccc12)NC(=O)[C@H](CCC(N)=O)NC(=O)[C@@H](NC(=O)[C@H](Cc1ccccc1)NC(=O)[C@H](CC(=O)O)NC(=O)[C@H](CCC(N)=O)NC(=O)[C@H](C)NC(=O)[C@H](CCCNC(=N)N)NC(=O)[C@H](CCCNC(=N)N)NC(=O)[C@H](CO)NC(=O)[C@H](CC(=O)O)NC(=O)[C@H](CC(C)C)NC(=O)[C@H](Cc1ccc(O)cc1)NC(=O)[C@H](CCCCN)NC(=O)[C@H](CO)NC(=O)[C@H](Cc1ccc(O)cc1)NC(=O)[C@H](CC(=O)O)NC(=O)[C@H](CO)NC(=O)[C@@H](NC(=O)[C@H](Cc1ccccc1)NC(=O)[C@@H](NC(=O)CNC(=O)[C@H](CCC(N)=O)NC(=O)[C@H](CO)NC(=O)[C@@H](N)Cc1c[nH]cn1)[C@@H](C)O)[C@@H](C)O)C(C)C)C(=O)N[C@@H](CC(N)=O)C(=O)N[C@@H](Cc1ccc(O)cc1)C(N)=O` [PD31], the EC50 at human GCGR worked out at 60 pM; at human GLP1R, 40 pM.

As to `CSCC[C@H](NC(=O)[C@H](CC(C)C)NC(=O)[C@H](Cc1c[nH]c2ccccc12)NC(=O)[C@H](CCC(N)=O)NC(=O)[C@@H](NC(=O)[C@H](Cc1ccccc1)NC(=O)[C@H](CC(=O)O)NC(=O)[C@H](CCC(N)=O)NC(=O)[C@H](C)NC(=O)[C@H](CCCNC(=N)N)NC(=O)[C@H](CCCNC(=N)N)NC(=O)[C@H](CO)NC(=O)[C@H](CC(=O)O)NC(=O)[C@H](CC(C)C)NC(=O)[C@H](Cc1c[nH]c2ccccc12)NC(=O)[C@H](Cc1c[nH]cn1)NC(=O)[C@H](CO)NC(=O)[C@H](Cc1ccc(O)cc1)NC(=O)[C@H](CC(=O)O)NC(=O)[C@H](CO)NC(=O)[C@H](Cc1ccccc1)NC(=O)[C@H](Cc1ccccc1)NC(=O)[C@@H](NC(=O)CNC(=O)[C@H](CCC(N)=O)NC(=O)[C@H](CO)NC(=O)[C@@H](N)Cc1c[nH]cn1)[C@@H](C)O)C(C)C)C(=O)N[C@@H](CC(N)=O)C(=O)N[C@H](C(N)=O)[C@@H](C)O` [PD43], the 50% effective concentration (EC50) on human GCGR worked out at 30 pM; on human GLP1R, 40 pM.

Take `CC(C)C[C@H](NC(=O)[C@H](Cc1ccc(O)cc1)NC(=O)[C@H](CCCCN)NC(=O)[C@H](CO)NC(=O)[C@H](Cc1ccc(O)cc1)NC(=O)[C@H](CC(=O)O)NC(=O)[C@H](CO)NC(=O)[C@@H](NC(=O)[C@H](Cc1ccccc1)NC(=O)[C@@H](NC(=O)CNC(=O)[C@H](CCC(N)=O)NC(=O)[C@H](CO)NC(=O)[C@@H](N)Cc1c[nH]cn1)[C@@H](C)O)[C@@H](C)O)C(=O)N[C@@H](CC(=O)O)C(=O)N[C@@H](Cc1c[nH]c2ccccc12)C(=O)N[C@@H](CCCNC(=N)N)C(=O)N[C@@H](CCCNC(=N)N)C(=O)N[C@@H](C)C(=O)N[C@@H](CCC(N)=O)C(=O)N[C@@H](CC(=O)O)C(=O)N[C@@H](Cc1ccccc1)C(=O)N[C@H](C(=O)N[C@@H](CCC(N)=O)C(=O)N[C@@H](Cc1c[nH]c2ccccc12)C(=O)N[C@@H](CC(C)C)C(=O)N[C@@H](CCC(N)=O)C(=O)N[C@@H](CC(N)=O)C(=O)N[C@H](C(N)=O)[C@@H](C)O)C(C)C` [PD44]: the figures for the EC50 at human GCGR and on human GLP1R were 20 pM and 10 pM, respectively. At human GCGR (in words, both receptors), the “balance of activity at the GCG and GLP-1 receptors” value is “relatively balanced potent activity at the GCG and GLP-1 receptors”.

On to `CC(C)C[C@H](NC(=O)[C@H](CC(C)C)NC(=O)[C@H](Cc1c[nH]c2ccccc12)NC(=O)[C@H](CC(=O)O)NC(=O)[C@@H](NC(=O)[C@H](Cc1ccccc1)NC(=O)[C@H](CC(=O)O)NC(=O)[C@H](CCC(N)=O)NC(=O)[C@H](C)NC(=O)[C@H](CCCNC(=N)N)NC(=O)[C@H](CCCNC(=N)N)NC(=O)[C@H](CO)NC(=O)[C@H](CC(=O)O)NC(=O)[C@H](CC(C)C)NC(=O)[C@H](Cc1ccc(O)cc1)NC(=O)[C@H](CCCCN)NC(=O)[C@H](CO)NC(=O)[C@H](Cc1ccc(O)cc1)NC(=O)[C@H](CC(=O)O)NC(=O)[C@H](CO)NC(=O)[C@@H](NC(=O)[C@H](Cc1ccccc1)NC(=O)[C@@H](NC(=O)CNC(=O)[C@H](CCC(N)=O)NC(=O)[C@H](CO)NC(=O)[C@@H](N)Cc1c[nH]cn1)[C@@H](C)O)[C@@H](C)O)C(C)C)C(=O)N[C@@H](CC(N)=O)C(=O)N[C@@H](C)C(N)=O` [PD48], for which the EC50 at human GCGR was 70 pM; at human GLP1R, 20 pM.

On to `CC[C@H](C)[C@H](NC(=O)[C@H](CC(C)C)NC(=O)[C@H](Cc1c[nH]c2ccccc12)NC(=O)[C@H](CC(=O)O)NC(=O)[C@@H](NC(=O)[C@H](Cc1ccccc1)NC(=O)[C@H](CC(=O)O)NC(=O)[C@H](CCC(N)=O)NC(=O)[C@H](C)NC(=O)[C@H](CCCNC(=N)N)NC(=O)[C@H](CCCNC(=N)N)NC(=O)[C@H](CO)NC(=O)[C@H](CC(=O)O)NC(=O)[C@H](CC(C)C)NC(=O)[C@H](Cc1ccc(O)cc1)NC(=O)[C@H](CCCCN)NC(=O)[C@H](CO)NC(=O)[C@H](Cc1ccc(O)cc1)NC(=O)[C@H](CC(=O)O)NC(=O)[C@H](CO)NC(=O)[C@@H](NC(=O)[C@H](Cc1ccccc1)NC(=O)[C@@H](NC(=O)CNC(=O)[C@H](CCC(N)=O)NC(=O)[C@H](CO)NC(=O)[C@@H](N)Cc1c[nH]cn1)[C@@H](C)O)[C@@H](C)O)C(C)C)C(=O)N[C@@H](CC(N)=O)C(=O)N[C@@H](CO)C(N)=O` [PD50], for which the concentration giving a half-maximal response (EC50) on human GCGR turned out to be 20 pM; on human GLP1R, 10 pM.

With `CSCC[C@H](NC(=O)[C@H](CC(C)C)NC(=O)[C@H](Cc1c[nH]c2ccccc12)NC(=O)[C@H](CCC(N)=O)NC(=O)[C@@H](NC(=O)[C@H](Cc1ccccc1)NC(=O)[C@H](CC(=O)O)NC(=O)[C@H](CCC(N)=O)NC(=O)[C@H](C)NC(=O)[C@H](CCCNC(=N)N)NC(=O)[C@H](CCCNC(=N)N)NC(=O)[C@H](CO)NC(=O)[C@H](CC(=O)O)NC(=O)[C@H](CC(C)C)NC(=O)[C@H](Cc1ccc(O)cc1)NC(=O)[C@H](CCCCN)NC(=O)[C@H](CO)NC(=O)[C@H](Cc1ccc(O)cc1)NC(=O)[C@H](CC(=O)O)NC(=O)[C@H](CO)NC(=O)[C@@H](NC(=O)[C@H](Cc1ccccc1)NC(=O)[C@@H](NC(=O)CNC(=O)[C@H](Cc1c[nH]cn1)NC(=O)[C@H](CO)NC(=O)[C@@H](N)Cc1c[nH]cn1)[C@@H](C)O)[C@@H](C)O)C(C)C)C(=O)N[C@H](C(=O)N[C@H](C(N)=O)[C@@H](C)O)[C@@H](C)O` [PD51], the EC50 on human GCGR is 30 pM; on human GLP1R, 20 pM.

Take `CSCC[C@H](NC(=O)[C@H](CC(=O)O)NC(=O)[C@H](CC(C)C)NC(=O)[C@H](Cc1ccc(O)cc1)NC(=O)[C@H](CCCCN)NC(=O)[C@H](CO)NC(=O)[C@H](Cc1ccc(O)cc1)NC(=O)[C@H](CC(=O)O)NC(=O)[C@H](CO)NC(=O)[C@@H](NC(=O)[C@H](Cc1ccccc1)NC(=O)[C@@H](NC(=O)CNC(=O)[C@H](CCC(N)=O)NC(=O)[C@H](CO)NC(=O)[C@@H](N)Cc1c[nH]cn1)[C@@H](C)O)[C@@H](C)O)C(=O)N[C@@H](CCC(N)=O)C(=O)N[C@@H](CCCNC(=N)N)C(=O)N[C@@H](C)C(=O)N[C@@H](Cc1c[nH]cn1)C(=O)N[C@@H](CC(=O)O)C(=O)N[C@@H](Cc1ccccc1)C(=O)N[C@H](C(=O)N[C@@H](CCC(N)=O)C(=O)N[C@@H](Cc1c[nH]c2ccccc12)C(=O)N[C@@H](CC(C)C)C(=O)N[C@@H](CCSC)C(=O)N[C@@H](CC(N)=O)C(=O)N[C@H](C(N)=O)[C@@H](C)O)C(C)C` [PD55]: the EC50 on human GCGR and at human GLP1R was 10 pM throughout.

These data come from patent US10493125B2 (Merck Sharp & Dohme Corp., priority 2015, dated 2019).
